Experimental data published in patent US20110028566A1, “COMPOSITIONS AND PRODUCTS CONTAINING CYCLOALIPHATIC DIOL ANTIMICROBIAL AGENTS AND METHODS OF USING THE COMPOSITIONS AND PRODUCTS” (EASTMAN CHEMICAL COMPANY, priority 2009, published 2011).

What was measured:
Experiment in all cases: Microbial challenge testing in BPW
Format in all cases: cell-based
[1] = tested on: Staphylococcus epidermidis
Procedure: (§1) The microorganisms used in challenge tests are given in Table 3, designated as either ATCC (American Type Culture Collection) or wild type. These wild type organisms were problematic organisms previously isolated from chemical products. In the description for each organism, the bacteria are indicated as either GN (Gram negative) or GP (Gram positive).
(§2) All of the microorganisms were grown in Tryptose Soy Broth (TSB), DIFCO™ available from Becton, Dickinson and Company, containing 1% dextrose. Aspergillus niger and Candida albicans were incubated at 22° C.±2° C. for at least 96 hours. All bacteria were incubated at 35° C.±2° C. in a humidified incubator for at least 96 hours.
(§3) The following procedure was followed to determine the amount of each challenge material (inoculum broth) required to produce a 10^8 cfu/mL challenge, which is equivalent to a final test-sample microbial concentration of 10^5 to 10^6 cfu (colony-forming units)/mL.
(§4) Using a sterile serological pipette, 1 mL of the growth from each TSB culture was transferred into tubes containing 9 mL phosphate buffer (pH 7.2) and mixed thoroughly. This process was repeated to make serial 1:10 dilutions. Then 0.1 mL of each sample and dilution was inoculated onto agar plates to produce the equivalent of a further 1:10 dilution. C. albicans and A. niger were inoculated onto SDA and bacteria were inoculated onto Plate Count Agar (PCA), DIFCO™ available from Becton, Dickinson and Company. The 0.1 mL aliquots were evenly distributed on the plates using the spread-plate technique. The spread-plate technique is performed by spreading the aliquot over the entire plate surface using a sterile spreading rod while rotating the plate with a rotary auto-plater. After the inoculum was absorbed completely, each plate was inverted and incubated (fungi at 22° C.±2° C. and bacteria at 35° C.±2° C.).
(§5) After incubation for at least 48 hours, colonies that had developed on the agar plates were counted and recorded with the corresponding dilution. If counting had to be delayed temporarily, plates were refrigerated, preferably no more than 24 hours, until they could be counted. The number of cfu/mL was determined by multiplying the count by the dilution factor for that particular plate.
(§6) Turbidity in Nepholemetric Turbidity Units (NTU) was measured for each serial dilution using the HF-Micro 100 Model Turbidimeter. For each microorganism, the plate counts were compared to the turbidity readings.
(§7) Control substrates (“broth alone”) were prepared for each microorganism separately in triplicate by adding 13.5 mL of BPW (pH 7.0) containing 1% (w/v) dextrose to each 20-mL glass tube; then adding 1.5 mL challenge material to produce a final concentration at time zero of 10^5 to 10^6 cfu/mL and a total volume of 15 mL.
(§8) Test sample substrates were prepared containing each test material (1,4-CHDM, etc) or combination of test materials at the concentrations shown in Tables 5 and 6. Sample substrates were prepared in triplicate, except those substrates containing PE or CG which were prepared in duplicate. Substrates were prepared by adding BPW containing 1% (w/v) dextrose to each 20-mL glass tube, then adding the test material in the amount appropriate to achieve the desired weight/volume percent (g/100 mL) and to obtain a total volume of BPW with dextrose and test material of 13.5 mL. Then 1.5 mL challenge material was added to produce a final concentration at time zero of 10^5 to 10^6 cfu/mL of the respective organism and a total test sample substrate volume of 15 mL.
(§9) After mixing, all challenged substrates were incubated at 35° C.±2° C. for 14 days and then at ambient room temperature.

[2] = tested on: Escherichia coli
Procedure: as §1, §2, §3, §4, §5, §6, §7, §8, §9

[3] = tested on: Aeromonas sp.
Procedure: as §1, §2, §3, §4, §5, §6, §7, §8, §9

[4] = tested on: Bacillus subtilis
Procedure: as §1, §2, §3, §4, §5, §6, §7, §8, §9

[5] = tested on: Streptococcus mutans
Procedure: as §1, §2, §3, §4, §5, §6, §7, §8, §9

[6] = tested on: Proteus vulgaris; settings: 0.05%
Procedure: as §1, §2, §3, §4, §5, §6, §7, §8, §9

Compound: O=c1[nH]sc2ccccc12 [BIT, 1,2-benzisothiazolin-3-one]
- Grade code S. epidermidis ([1]; 0.05%, 3 days incubation): 4 (1001 to 10,000 colonies (thus 10,000 cfu/mL to 100,000 cfu/mL))
- Grade code S. epidermidis ([1]; 0.05%, 13 days incubation): 4 (1001 to 10,000 colonies (thus 10,000 cfu/mL to 100,000 cfu/mL))
- Grade code S. epidermidis ([1]; 0.05%, 30 days incubation): 4 (1001 to 10,000 colonies (thus 10,000 cfu/mL to 100,000 cfu/mL))
- Grade code S. epidermidis ([1]; 0.2%, 3 days incubation): 4 (1001 to 10,000 colonies (thus 10,000 cfu/mL to 100,000 cfu/mL))
- Grade code S. epidermidis ([1]; 0.2%, 13 days incubation): 2 (52 to 100 colonies counted (thus 520 to 1000 cfu/mL))
- Grade code S. epidermidis ([1]; 0.2%, 30 days incubation): 2 (52 to 100 colonies counted (thus 520 to 1000 cfu/mL))
- Grade code E. coli ([2]; 0.05%, 3 days incubation): 4 (1001 to 10,000 colonies (thus 10,000 cfu/mL to 100,000 cfu/mL))
- Grade code E. coli ([2]; 0.05%, 14 days incubation): 4 (1001 to 10,000 colonies (thus 10,000 cfu/mL to 100,000 cfu/mL))
- Grade code E. coli ([2]; 0.05%, 30 days incubation): 4 (1001 to 10,000 colonies (thus 10,000 cfu/mL to 100,000 cfu/mL))
- Grade code E. coli ([2]; 0.2%, 3 days incubation): 1 (1 to 51 colonies counted (thus 10 to 510 cfu/mL))
- Grade code E. coli ([2]; 0.2%, 14 days incubation): 0 (No growth detected or <1 colony (thus <10 cfu/mL))
- Grade code E. coli ([2]; 0.2%, 30 days incubation): 0 (No growth detected or <1 colony (thus <10 cfu/mL))
- Grade code Aeromonas sp ([3]; 0.05%, 3 days incubation): 5 (More than 10,000 colonies estimated (thus >100,000 cfu/mL))
- Grade code Aeromonas sp ([3]; 0.05%, 14 days incubation): 4 (1001 to 10,000 colonies (thus 10,000 cfu/mL to 100,000 cfu/mL))
- Grade code Aeromonas sp ([3]; 0.05%, 30 days incubation): 4 (1001 to 10,000 colonies (thus 10,000 cfu/mL to 100,000 cfu/mL))
- Grade code Aeromonas sp ([3]; 0.2%, 3 days incubation): 4 (1001 to 10,000 colonies (thus 10,000 cfu/mL to 100,000 cfu/mL))
- Grade code Aeromonas sp ([3]; 0.2%, 14 days incubation): 2 (52 to 100 colonies counted (thus 520 to 1000 cfu/mL))
- Grade code Aeromonas sp ([3]; 0.2%, 30 days incubation): 2 (52 to 100 colonies counted (thus 520 to 1000 cfu/mL))
- Grade code B. subtilis ([4]; 0.05%, 3 days incubation): 4 (1001 to 10,000 colonies (thus 10,000 cfu/mL to 100,000 cfu/mL))
- Grade code B. subtilis ([4]; 0.05%, 14 days incubation): 4 (1001 to 10,000 colonies (thus 10,000 cfu/mL to 100,000 cfu/mL))
- Grade code B. subtilis ([4]; 0.05%, 30 days incubation): 4 (1001 to 10,000 colonies (thus 10,000 cfu/mL to 100,000 cfu/mL))
- Grade code B. subtilis ([4]; 0.2%, 3 days incubation): 4 (1001 to 10,000 colonies (thus 10,000 cfu/mL to 100,000 cfu/mL))
- Grade code B. subtilis ([4]; 0.2%, 14 days incubation): 4 (1001 to 10,000 colonies (thus 10,000 cfu/mL to 100,000 cfu/mL))
- Grade code B. subtilis ([4]; 0.2%, 30 days incubation): 4 (1001 to 10,000 colonies (thus 10,000 cfu/mL to 100,000 cfu/mL))
- Grade code S. mutans ([5]; 0.05%, 3 days incubation): 1.7
- Grade code S. mutans ([5]; 0.05%, 13 days incubation): 0 (No growth detected or <1 colony (thus <10 cfu/mL))
- Grade code S. mutans ([5]; 0.05%, 30 days incubation): 0 (No growth detected or <1 colony (thus <10 cfu/mL))
- Grade code S. mutans ([5]; 0.2%, 3 days incubation): 0 (No growth detected or <1 colony (thus <10 cfu/mL))
- Grade code S. mutans ([5]; 0.2%, 13 days incubation): 0 (No growth detected or <1 colony (thus <10 cfu/mL))
- Grade code S. mutans ([5]; 0.2%, 30 days incubation): 0 (No growth detected or <1 colony (thus <10 cfu/mL))
- Effectiveness against S. mutans (in words) ([5]; BIT alone): highly effective
- Grade code P. vulqaris ([6]; 3 days incubation): 4 (1001 to 10,000 colonies (thus 10,000 cfu/mL to 100,000 cfu/mL))
- Grade code P. vulqaris ([6]; 13 days incubation): 4 (1001 to 10,000 colonies (thus 10,000 cfu/mL to 100,000 cfu/mL))
